pKi: −log10 of the molar value.
Target: T1, C5a receptor (Homo sapiens, UniProt P21730)
T1 construct: from tissue; host or cells: polymorphonuclear leukocyte (PMNL) membrane fragments
T1 sequence (P21730 1-350): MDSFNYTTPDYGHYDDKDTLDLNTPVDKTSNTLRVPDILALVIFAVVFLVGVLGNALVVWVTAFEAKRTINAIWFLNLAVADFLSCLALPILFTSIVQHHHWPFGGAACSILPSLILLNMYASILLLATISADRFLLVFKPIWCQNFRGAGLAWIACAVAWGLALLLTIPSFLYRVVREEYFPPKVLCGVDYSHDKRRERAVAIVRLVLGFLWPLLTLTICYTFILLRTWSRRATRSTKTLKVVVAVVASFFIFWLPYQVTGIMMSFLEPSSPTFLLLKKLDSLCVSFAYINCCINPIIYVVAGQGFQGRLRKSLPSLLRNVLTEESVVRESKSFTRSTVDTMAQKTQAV
Assay: Anaphylatoxin (C5a) receptor binding Ki determination, 125I-C5a on PMNL membrane fragments
Conditions: read-out: Ki (In vitro C5a Receptor Binding Potency)
Procedure: The membrane-bound radiolabeled C5a was separated from the free radiolabeled C5a by filtration, and the recovered gamma radioactivity was measured. […] Free and membrane-bound ligand were separated by filtration.

Compound | pKi
CC(C)C[C@H](NC(=O)CNC(=O)C=C1CNc2ccccc21)C(=O)N[C@H](CCCc1ccccc1)C(=O)N[C@@H](CCCNC(=N)N)C(=O)O (single isomer, unassigned) [Example 65] | 6.52
CC(C)C[C@H](NC(=O)CNC(=O)C=C1CNc2ccccc21)C(=O)N[C@H](CCCc1ccccc1)C(=O)N[C@@H](CCCNC(=N)N)C(=O)O (single isomer, unassigned) [Example 66] | 7.34
CC(C)C[C@H](NC(=O)[C@H](C)NC(=O)[C@H](CC1CCCCC1)NC(=O)[C@@H]1CCCN1C(=O)[C@@H](N)CCCCN)C(=O)NC(CCCc1ccccc1)C(=O)N[C@@H](CCCNC(=N)N)C(=O)O (single isomer, unassigned) [Example 68] | 4.85
CC(C)C[C@H](NC(=O)[C@H](C)NC(=O)[C@H](CC1CCCCC1)NC(=O)[C@@H]1CCCN1C(=O)[C@@H](N)CCCCN)C(=O)NC(CCCc1ccccc1)C(=O)N[C@@H](CCCNC(=N)N)C(=O)O (single isomer, unassigned) [Example 69] | 6.85
CC(C)C[C@H](NC(=O)CNC(=O)[C@H](CC1CCCCC1)NC(=O)CCCCCN)C(=O)NC(CCCc1ccccc1)C(=O)N[C@@H](CCCNC(=N)N)C(=O)O (single isomer, unassigned) [Example 70] | 5.35
CC(C)C[C@H](NC(=O)CNC(=O)[C@H](CC1CCCCC1)NC(=O)CCCCCN)C(=O)NC(CCCc1ccccc1)C(=O)N[C@@H](CCCNC(=N)N)C(=O)O (single isomer, unassigned) [Example 71] | 6.82
CC(C)C[C@H](NC(=O)CNC(=O)[C@H](CC1CCCCC1)NC(=O)CN)C(=O)NC(CCCc1ccccc1)C(=O)N[C@@H](CCCNC(=N)N)C(=O)O (single isomer, unassigned) [Example 72] | 5.37
CC(C)C[C@H](NC(=O)CNC(=O)[C@H](CC1CCCCC1)NC(=O)CN)C(=O)NC(CCCc1ccccc1)C(=O)N[C@@H](CCCNC(=N)N)C(=O)O (single isomer, unassigned) [Example 73] | 5.70
CC(C)C[C@H](NC(=O)CNC(=O)[C@H](CC1CCCCC1)N(C)C(=O)CCCCCCN)C(=O)NC(CCCc1ccccc1)C(=O)N[C@@H](CCCNC(=N)N)C(=O)O (single isomer, unassigned) [Example 75] | 4.76
CC(C)C[C@H](NC(=O)CNC(=O)[C@H](CC1CCCCC1)N(C)C(=O)CCCCCCN)C(=O)NC(CCCc1ccccc1)C(=O)N[C@@H](CCCNC(=N)N)C(=O)O (single isomer, unassigned) [Example 76] | 5.82
CC(C)C[C@H](NC(=O)CNC(=O)[C@H](CC1CCCCC1)NC(=O)CCN)C(=O)NC(CCCc1ccccc1)C(=O)N[C@@H](CCCNC(=N)N)C(=O)O (single isomer, unassigned) [Example 84] | 5.41
CC(C)C[C@H](NC(=O)CNC(=O)[C@H](CC1CCCCC1)NC(=O)CCN)C(=O)NC(CCCc1ccccc1)C(=O)N[C@@H](CCCNC(=N)N)C(=O)O (single isomer, unassigned) [Example 85] | 5.70
CC(C)C[C@H](NC(=O)[C@H](CC1CCCCC1)NC(=O)CCCCCN)C(=O)NC(CCCc1ccccc1)C(=O)N[C@@H](CCCNC(=N)N)C(=O)O (single isomer, unassigned) [Example 86, N-(6-Aminohexanoyl)-{(25)-2-Amino-3-cyclohexylpropanoyl}-Leucyl-{(R/S)-2-Amino-5-phenylpentanoyl}-Arginyl-OH] | 4.35
CC(C)C[C@H](NC(=O)[C@H](CC1CCCCC1)NC(=O)CCCCCN)C(=O)NC(CCCc1ccccc1)C(=O)N[C@@H](CCCNC(=N)N)C(=O)O (single isomer, unassigned) [Example 87] | 5.24
N=C(N)NCCC[C@H](NC(=O)C(CCCc1ccccc1)NC(=O)CN(Cc1ccccc1)C(=O)[C@H](CCCCN)NC(=O)[C@@H](N)Cc1ccccc1)C(=O)O (single isomer, unassigned) [Example 94, H-Phenylalanyl-Lysyl-Glycyl(N-benzyl)-{(R/S)-2-Amino-5-phenylpentanoyl}-Arginyl-OH] | 5.24
N=C(N)NCCC[C@H](NC(=O)C(CCCc1ccccc1)NC(=O)CN(Cc1ccccc1)C(=O)[C@H](CCCCN)NC(=O)[C@@H](N)Cc1ccccc1)C(=O)O (single isomer, unassigned) [Example 95, H-Phenylalanyl-Lysyl-Glycyl(N-benzyl)-{(R/S)-2-Amino-5-phenylpentanoyl}-Arginyl-OH] | 4.47
CC(C)C[C@H](NC(=O)[C@H](CCCCN)NC(=O)[C@@H](N)CC1CCCCC1)C(=O)NC(CCCc1ccccc1)C(=O)N[C@@H](CCCNC(=N)N)C(=O)O (single isomer, unassigned) [Example 96] | 4.48
CC(C)C[C@H](NC(=O)[C@H](CCCCN)NC(=O)[C@@H](N)CC1CCCCC1)C(=O)NC(CCCc1ccccc1)C(=O)N[C@@H](CCCNC(=N)N)C(=O)O (single isomer, unassigned) [Example 97] | 5.09

Compound | pKi
CC(C)C[C@@H](NC(=O)CNC(=O)[C@H](CC1CCCCC1)NC(=O)CCCCCN)C(=O)NC(CCCc1ccccc1)C(=O)N[C@@H](CCCNC(=N)N)C(=O)O (single isomer, unassigned) [Example 99] | 5.32
CC(C)C[C@@H](NC(=O)CNC(=O)[C@H](CC1CCCCC1)NC(=O)CCCCCN)C(=O)NC(CCCc1ccccc1)C(=O)N[C@@H](CCCNC(=N)N)C(=O)O (single isomer, unassigned) [Example 100] | 4.22
CC(C)[C@H](NC(=O)CNC(=O)[C@H](CC1CCCCC1)NC(=O)CCCCCN)C(=O)NC(CCCc1ccccc1)C(=O)N[C@@H](CCCNC(=N)N)C(=O)O (single isomer, unassigned) [Example 101] | 4.28
CC(C)[C@H](NC(=O)CNC(=O)[C@H](CC1CCCCC1)NC(=O)CCCCCN)C(=O)NC(CCCc1ccccc1)C(=O)N[C@@H](CCCNC(=N)N)C(=O)O (single isomer, unassigned) [Example 102, N-(6-Aminohexanoyl)-{(2S)-2-Amino-3-cyclohexylpropanoyl}-Glycyl-Valyl-{(FFS)-2-Amino-5-phenylpentanoyl}-Arginyl-OH] | 4.66
CC(C)C[C@H](NC(=O)CNC(=O)C(N)CCCc1ccccc1)C(=O)N[C@H](CCCc1ccccc1)C(=O)N[C@@H](CCCNC(=N)N)C(=O)O (single isomer, unassigned) [Example 104] | 5.62
CC(C)C[C@H](NC(=O)CNC(=O)C(N)CCCc1ccccc1)C(=O)N[C@H](CCCc1ccccc1)C(=O)N[C@@H](CCCNC(=N)N)C(=O)O (single isomer, unassigned) [Example 105] | 6.48
CC(C)C[C@H](NC(=O)[C@@H]1CCCN1C(=O)[C@H](CC1CCCCC1)NC(=O)CNC(=O)CCCCCN)C(=O)NC(CCCc1ccccc1)C(=O)N[C@@H](CCCNC(=N)N)C(=O)O (single isomer, unassigned) [Example 110] | 5.03
CC(C)C[C@H](NC(=O)[C@@H]1CCCN1C(=O)[C@H](CC1CCCCC1)NC(=O)CNC(=O)CCCCCN)C(=O)NC(CCCc1ccccc1)C(=O)N[C@@H](CCCNC(=N)N)C(=O)O (single isomer, unassigned) [Example 111] | 6.00
CC(C)C[C@H](NC(=O)CNC(=O)[C@H](CC1CCCCC1)NC(=O)CN(C)C(=O)CCCN)C(=O)NC(CCCc1ccccc1)C(=O)N[C@@H](CCCNC(=N)N)C(=O)O (single isomer, unassigned) [Example 112] | 4.75
CC(C)C[C@H](NC(=O)CCNC(=O)[C@H](CC1CCCCC1)NC(=O)CCCCCN)C(=O)NC(CCCc1ccccc1)C(=O)N[C@@H](CCCNC(=N)N)C(=O)O (single isomer, unassigned) [Example 114] | 4.73
CC(C)C[C@H](NC(=O)CCNC(=O)[C@H](CC1CCCCC1)NC(=O)CCCCCN)C(=O)NC(CCCc1ccccc1)C(=O)N[C@@H](CCCNC(=N)N)C(=O)O (single isomer, unassigned) [Example 115] | 5.25
CC(C)C[C@H](NC(=O)[C@H](C)NC(=O)[C@H](CC1CCCCC1)NC(=O)CCCCCN)C(=O)NC(CCCc1ccccc1)C(=O)N[C@@H](CCCNC(=N)N)C(=O)O (single isomer, unassigned) [Example 121] | 5.15
CC(C)C[C@H](NC(=O)CNC(=O)[C@H](Cc1ccccc1)NC(=O)CCCCCN)C(=O)NC(CCCc1ccccc1)C(=O)N[C@@H](CCCNC(=N)N)C(=O)O (single isomer, unassigned) [Example 124, N-(6-Aminohexanoyl)-Phenylalanyl-Glycyl-Leucyl{(R/S)-2-Amino-5-phenylpentanoyl}-Arginyl-OH] | 4.47
CC(C)C[C@H](NC(=O)CNC(=O)[C@H](Cc1ccccc1)NC(=O)CCCCCN)C(=O)NC(CCCc1ccccc1)C(=O)N[C@@H](CCCNC(=N)N)C(=O)O (single isomer, unassigned) [Example 125, N-(6-Aminohexanoyl)-Phenylalanyl-Glycyl-Leucyl-{(R/S)-2-Amino-5-phenylpentanoyl}-Arginyl-OH] | 6.08
CC(C)C[C@H](NC(=O)[C@@H](C)NC(=O)[C@H](CC1CCCCC1)NC(=O)CCCCCN)C(=O)NC(CCCc1ccccc1)C(=O)N[C@@H](CCCNC(=N)N)C(=O)O (single isomer, unassigned) [Example 126] | 4.87
CC(C)C[C@H](NC(=O)[C@@H](C)NC(=O)[C@H](CC1CCCCC1)NC(=O)CCCCCN)C(=O)NC(CCCc1ccccc1)C(=O)N[C@@H](CCCNC(=N)N)C(=O)O (single isomer, unassigned) [Example 127] | 4.63
CN[C@@H](Cc1ccccc1)C(=O)N[C@@H](CCCCN)C(=O)N1CCC[C@H]1C(=O)N[C@@H](CC1CCCCC1)C(=O)N[C@@H](C)C(=O)N[C@@H](CC(C)C)C(=O)NC(CCCc1ccccc1)C(=O)N[C@@H](CCCNC(=N)N)C(=O)O (single isomer, unassigned) [Example 128] | 7.57
